In patent US7795314B2, “Protective role of semapimod in necrotizing enterocolitis” (Cytokine PharmaSciences, Inc., priority 2005, dated 2010):

Assays:
[1] = system: p38 MAP kinase; experiment: Activation (phosphorylation) of p38 MAP kinase in IEC-6 cells, Western blotting pp38/p38; assay type: cell-based, rat
Procedure: The rat intestinal crypt cell line IEC-6 was purchased from the American Type Culture Collection (ATCC, Manassas, Va.). Cells were grown in tissue culture medium consisting of Dulbeco's modified Eagle's medium with 4.5 gm/L glucose (Bio-Whittaker, Walkersville, Md.) supplemented with 5% fetal bovine serum (Bio-Whittaker), 0.02 mM glutamine (GIBCO; Grand Island, N.Y.), 0.1 U/ml insulin, 100 U/ml penicillin, and 100 μg/ml streptomycin (GIBCO) at 37° C. and 10% CO2. Cells were pretreated with semapimod (0.1-10 μM solutions prepared in 5% dextrose) followed by short exposure to LPS (5 μg/ml), peroxynitrite (ONOO^−, 50 μM) or cytomix (a combination of tumor necrosis factor (TNFα, 10 ng/ml), interleukin-1β (IL-β, 1 ng/ml), and interferon-gamma (IFNγ, 1000 U/ml) for 10 min. Preparation of the ONOO^− solution and cell treatment was as previously reported (36). The lysates were collected for Western blotting analysis as follows: proteins were extracted for 10 min at 4° C. witih lysis buffer (20 mM Tris pH 8.0, 150 mM NaCl, 1% NP-40, 0.5% sodium deoxycholate, 0.1% sodium dodecylsulfate) supplemented with protease and phosphatase inhibitors: 1 mM PMSF, 1 mM benzamidine, 50 μg/ml aprotinin, 0.5 mM Na3VO4, 20 mM NaF, and 0.5 mM phenylarsine oxide. Aliquots containing 50 μg total protein were resolved by SDS-polyacrylamide gel electrophoresis. Gels were electroblotted onto nitrocellulose membranes. Following 1 hr incubation in blocking solution (phosphate-buffered saline, 0.1% Tween-20, 2% fish gelatin, pH 7.5), membranes were incubated with primary (phospho-p38 and p38) and secondary horseradish peroxidase-conjugated antibodies as recommended by manufacturers. Membranes were then impregnated with luminol reagent and exposed to x-ray film.
(a) Rat intestinal epithelial cells (IEC-6) were pretreated with different doses of the drug (0.1-10 μM) for 1 hr. prior to stimulation with 5 μg/ml LPS for 10 min or (b) were pretreated with semapimod (5 μM) for 1 hr. prior to stimulation with 5 μg/ml LPS or ONOO^− (50 μM) for 10 min. The protein lysates were then collected and Western blotting analysis for phospho-p38 and p38 (loading control) was performed as described in Methods. (a) A representative blot for pp38/p38 and densitometric analysis showing the ratio of pp38/p38 band intensity. Ctrl are non-stimulated cells. Results in graph bars are the mean±S.E.M. (n=3 independent experiments, *P<0.05 vs. LPS treated cells without pretreatment with semapimod, analyzed by one-way ANOVA followed by Fisher's LSD Test).
The present inventors have previously shown that LPS causes rapid but transient activation of p38 MAP kinase as determined by increased phosphorylation of p38. […] The effect of semapimod on p38 activation by inflammatory mediators other than LPS was evaluated.

[2] = system: formula-feeding/hypoxia-mediated intestinal injury (experimental NEC); experiment: Animal model of NEC: incidence of NEC and morphologic evaluation of terminal ileum; assay type: in vivo, Sprague-Dawley rats (newborn); details: FFH newborn rats
Procedure: (§1) All the experiments were carried out according to an animal protocol approved by the Animal Research and Care Committee (ARCC) of the Children's Hospital of Pittsburgh. Pregnant time-dated Sprague-Dawley rats (Charles River Labs, Wilmington, Mass.) were induced at term using a subcutaneous injection (1 to 2 U per animal) of Pitocin® (Monarch Pharmaceuticals, Bristol, Tenn.). Immediately after birth, the neonates were weighed and randomized into one of the different treatment groups. Group 1 consisted of neonatal rats left with their mother, and thus were breast-fed. […]
Newborn rats separated from their mothers were fed a conventional formula and exposed to hypoxia after administration of the drug semapimod (0.1-1 mg/kg, i.p.) as described in Methods. […] Incidence of NEC was calculated as the percentage of animals displaying pathology scores higher than 0 as assessed by histology. Results in graph bars are the mean±S.E.M. (n=15-45 animals for each group, *P<0.05 vs. FFH without semapimod, analyzed by one-way ANOVA followed by Fisher's LSD Test).

[3] = system: HMGB1; experiment: Western blotting of ileal mucosal scrapings, NEC model; assay type: in vivo, rat; details: FFH+semapimod vs FFH, day 4, 30 kDa band, FIG. 3a
Procedure: as §1
(§2) Newborn rats were sacrificed as indicated and segments of the terminal ileum were isolated. […] Protein concentration in the supernatant was determined using the bicinchoninic acid (BCA) Protein Assay kit form Sigma (St. Louis, Mo.) with bovine serum albumin as standard. […]

[4] = system: RAGE; experiment: as above; assay type: in vivo, rat; details: FFH+semapimod vs FFH, day 4, 45 and 25 kDa bands, FIG. 3c
Procedure: as §1, §2

[5] = system: iNOS; experiment: as above; assay type: in vivo, rat; details: FFH animals, 0.75 mg/kg IP daily, day 4, FIG. 5a
Procedure: as §1, §2

[6] = system: COX-2; experiment: as above; assay type: in vivo, rat; details: FFH animals, 0.75 mg/kg IP daily, day 4, FIG. 5b
Procedure: as §1, §2

[7] = system: Bax; experiment: as above; assay type: in vivo, rat; details: FFH pups, 0.75 mg/kg IP daily, day 4, FIG. 4b
Procedure: as §1, §2

[8] = system: Bad; experiment: as above; assay type: in vivo, rat; details: FFH pups, 0.75 mg/kg IP daily, day 4, FIG. 4a
Procedure: as §1, §2

[9] = system: endotoxin-induced TNF release and shock; details: adult male Lewis rats, icv. vs intravenous; cited from earlier work
[10] = 0.1-10 μM pretreatment 1 hr, then 5 μg/ml LPS 10 min, FIG. 6a

Q: Which “phosphorylation of p38 induced by ONOO−” value ([1]; 5 μM semapimod pretreatment 1 hr, ONOO− 50 μM 10 min, FIG. 6b) does the source give for `C/C(=N\NC(=N)N)c1cc(NC(=O)CCCCCCCCC(=O)Nc2cc(/C(C)=N/NC(=N)N)cc(/C(C)=N/NC(=N)N)c2)cc(/C(C)=N/NC(=N)N)c1` [semapimod] here?
A: not inhibited

Q: What about the “concentrations with maximal effect on LPS-induced phosphorylation of p38” value [1, 10] of the same compound?
A: higher than 1 μM

Q: And the “phosphorylation of p38 induced by LPS” value [1, 10]?
A: dose dependently inhibited

Q: What about the “p38 activation by a mixture of TNFα, IL-1β and IFN-γ” value ([1]; semapimod pretreatment, cytomix 10 min (not shown)) of the same compound?
A: failed to inhibit

Q: And the “severity of intestinal injury / morphology as assessed by histology” value ([2]; 0.75 mg/kg i.p., day 4, FIG. 3b, 0.75 mg/kg)?
A: decrease in the severity of injury

Q: What about the “doses that prevented intestinal damage (reduction in the incidence of NEC)” value ([2]; semapimod 0.1-1 mg/kg i.p. daily, terminal ileum day 4, FIG. 2) of the same compound?
A: higher than 0.5 mg/kg

Q: What about the “HMGB1 protein expression in ileal mucosa” value [3] of the same compound?
A: reduced after administration of semapimod

Q: And the “expression of RAGE in ileal mucosal scrapings” value [4]?
A: expression of RAGE was reduced

Q: What about the “expression of iNOS protein in terminal ileum” value [5] of the same compound?
A: significantly decreased

Q: And the “expression of COX-2 protein in terminal ileum” value [6]?
A: significantly decreased

Q: And the “expression of Bax protein in mucosal scrapings” value [7]?
A: significantly decreased

Q: And the “expression of Bad protein in mucosal scrapings” value [8]?
A: significantly decreased

Q: What about the “effectiveness of icv. administration in suppressing endotoxin-induced TNF release and shock as compared with intravenous” value [9] of the same compound?
A: 100,000 fold
